This note sets out measurements from PubChem BioAssay (NCI).

Several values for one entry are separate records, joined by “and”; a condition that tells them apart may be missing. Equal entries are not always repeated.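 A five-concentration, 48-hour dose response in 96-well plates underlies each endpoint, interpolated linearly between surrounding concentrations. Here, GI50 denotes the concentration required for 50% inhibition of growth. TGI is the concentration that stops growth completely.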

Holding throughout (assay): NCI anticancer screen, dose series, 48 h
Assay [1] concerns CAKI-1 renal.
The test system of assay [2] is HCT-116 colon.
The test system of assay [3] is HT29 colon.
For assay [4], the system named is LOX IMVI melanoma.
Assay [5] has as its system MALME-3M melanoma.
Assay [6] relates to NCI-H226 lung.
Assay [7] has as its system SK-MEL-2 melanoma.
The subject of assay [8] is SK-MEL-5 melanoma.
Assay [9] has as its system TK-10 renal.
Assay [10] relates to UACC-257 melanoma.

For the compound `OCCCCC#Cc1ccccc1C#Cc1ccc(C(F)(F)F)cc1`, the GI50 in assay [1] is 18.6 µM; in [2] it was 16.9 µM; in assay [3] it was 3.43 µM; in [4] it was 17.1 µM; in assay [5], 19.7 µM; in [6] it was 18.7 µM. Besides, the GI50 in assay [7] was 16 µM; in assay [8], 17.8 µM; in assay [9], 11.9 µM; in [10], 14.9 µM. The TGI in assay [1] is 33.8 µM; in assay [2], 35.8 µM; in assay [3], 18.1 µM; in assay [4], 31.5 µM; in [5] it was 35.5 µM; in assay [6], 34.1 µM. Moreover, the TGI came to 33.9 µM in assay [7], 33.3 µM in assay [8], 25.3 µM in assay [9] and 28.2 µM in assay [10].
In the case of `C[C@]12CCC3=NCCN3C1=CC[C@@H]1[C@@H]2CC[C@@]2(C)[C@H]1CC[C@]2(C)O`, the TGI in [1] was over 100 µM; in [2] it was over 100 µM; in [3] it was over 100 µM; in assay [4] it was over 100 µM; in [5] it was 53.5 µM; in assay [6], 96.3 µM. Also, the TGI in [7] is over 100 µM; in assay [8], 35.6 µM; in [9], over 100 µM; in assay [10], 73.1 µM.
Consider `O=C(c1ccccc1)C(Br)C(Br)c1ccccc1` (configuration not stated), for which the GI50 is 1.6 µM in [1]; 1.73 µM in assay [2]; 1.82 µM in assay [4]; 2.02 µM in assay [5]; 2.94 µM in assay [6]; 10.7 µM in assay [7]. Besides, the GI50 in assay [8] was 12.6 µM; in assay [9], 1.59 µM; in assay [10] it was 3.2 µM. Besides, the TGI in assay [1] was 3.34 µM; in assay [2] it was 3.32 µM; in [4], 3.41 µM; in assay [5] it was 4.31 µM; in assay [6] it was 7.66 µM; in [7], 24.6 µM. Moreover, the TGI in assay [8] is 25.6 µM; in assay [9] it was 3.01 µM; in assay [10], 8.04 µM.
As for `O=C(Oc1ccc2c(c1)CN(Cc1ccccc1)CO2)c1ccccc1`, the TGI in [1] is 37.8 µM; in [2], 30.6 µM; in assay [3] it was 40.8 µM; in assay [4], 37.1 µM; in assay [5], 33.9 µM; in assay [7], 50.5 µM. Also, the TGI in assay [8] is 31.1 µM; in assay [9], 29.8 µM; in assay [10] it was 29.5 µM.
For the compound `N#CCC1(n2cc(-c3ncnc4[nH]ccc34)cn2)CN(C2CCN(C(=O)c3ccnc(C(F)(F)F)c3F)CC2)C1`, the GI50 in assay [3] was over 100 µM; in assay [4], 96.8 µM; in assay [5] it was over 100 µM; in assay [6] it was 19.3 µM; in [7], over 100 µM; in assay [8], 65.3 µM. Moreover, the values for the GI50 in assay [9] and in [10] were 55.3 µM and over 100 µM, respectively. The TGI in assay [3], in assay [4], in assay [5], in assay [6], in assay [7] and in [8] was over 100 µM in each case. The TGI in assay [9] and in assay [10] was over 100 µM each time.
For `O=C(C(=O)c1cc(Br)ccc1O)c1cc(Br)ccc1O`, the GI50 was 2.16 µM in [1]; 3.38 µM in assay [2]; 14.6 µM in assay [3]; 3.48 µM in [4]; 2.24 µM in assay [5]; 3.88 µM in assay [7]. For the same compound, the values for the GI50 in assay [9] and in assay [10] were 3.44 µM and 2.21 µM, respectively. Besides, the TGI in assay [1] was 6.05 µM; in assay [2] it was 12.7 µM; in [3], over 100 µM; in assay [4] it was 13.6 µM; in assay [5], 6.12 µM; in assay [7], 13.3 µM. In addition, the TGI in assay [9] is 17.9 µM; in assay [10] it was 8.43 µM.
In the case of `COc1ccc(-c2cc(-c3ccco3)c(C#N)c(=O)[nH]2)cc1`, the TGI was over 100 µM in assay [2]; over 100 µM in assay [3]; over 100 µM in assay [4]; 75.7 µM in assay [5]; over 100 µM in assay [6]; over 100 µM in assay [9]. The compound further had a TGI in assay [10] of over 100 µM.
As for `Cc1ccnc(Nc2ccc([N+](=O)[O-])c(NCCN3CCOCC3)n2)c1`, the GI50 in assay [1] was 0.0052 µM; in assay [2], 0.00663 µM; in [3] it was 0.00438 µM; in assay [4], 0.0052 µM; in assay [5], 0.00617 µM; in assay [6], 0.0594 µM. The GI50 in assay [7] was 0.00566 µM and 0.0304 µM; in assay [8], 0.00564 µM; in assay [9] it was 18.5 µM. In addition, the TGI in [1] was over 100 µM; in assay [3] it was 18.3 µM; in [4], 27.9 µM; in assay [7], 27.2 µM; in assay [8], 0.206 µM and 0.315 µM; in assay [9] it was 62 µM.
`CN(C)c1ccc(O[Si](Oc2ccc(N(C)C)cc2)(Oc2ccc(N(C)C)cc2)Oc2ccc(N(C)C)cc2)cc1`: the TGI in assay [1], in assay [2], in assay [3], in assay [4], in assay [5] and in [6] was over 100 µM throughout. Moreover, the TGI in assay [8], in assay [9] and in assay [10] was over 100 µM throughout.
For the compound `COc1ccc(OCC(O)CN2CCN(c3ccc(Cl)cc3)CC2)cc1` (configuration not stated), the GI50 was 8.86 µM in assay [1]; over 100 µM in assay [2]; over 100 µM in [3]; over 100 µM in assay [4]; 59.7 µM in assay [5]; 37.9 µM in assay [6]. The GI50 in [7] and in [10] was over 100 µM throughout. The TGI in assay [1], in assay [2], in assay [3], in assay [4], in [5] and in assay [6] was over 100 µM throughout. For the same compound, the TGI in assay [7] and in assay [10] was over 100 µM each time.
For the compound `Nc1ncc(C2[C@H](CNC(=O)c3cc(Br)c[nH]3)C(CNC(=O)c3cc(Br)c[nH]3)[C@@H]2c2cnc(N)[nH]2)[nH]1` (some centres not stated), the GI50 in assay [1], in assay [2], in assay [4], in assay [5], in assay [6] and in assay [7] was over 50 µM throughout. Further, the GI50 in assay [8], in [9] and in assay [10] was over 50 µM in each case. Further, the TGI in assay [1], in [2], in [4], in assay [5], in [6] and in assay [7] was over 50 µM throughout. For the same compound, the TGI in assay [8], in assay [9] and in assay [10] was over 50 µM each time.
Consider `CC(=O)OCC1OC(n2c(=S)n(-c3ccccc3)c(=O)c3cc(Br)cc(Br)c32)C(OC(C)=O)C(OC(C)=O)C1OC(C)=O` (configuration not stated), for which the TGI in assay [1], in assay [2], in assay [3], in assay [4], in [5] and in assay [6] was over 100 µM throughout. The TGI in assay [7], in assay [8] and in assay [10] was over 100 µM in each case. The GI50 in [10] is 46.6 µM and > 100 µM.
Turning to `N/C(=N\C(N)=N\c1nc2ccccc2s1)c1cnccn1`, the GI50 in [1] was 2.14 µM; in [3] it was 2.87 µM; in [4], 3.47 µM; in assay [5], 2.27 µM; in assay [6], 2.45 µM; in assay [7], 1.95 µM. Moreover, the GI50 in assay [8] was 2.29 µM; in assay [9], 2.53 µM; in [10], 2.13 µM. The TGI in [1] is 5.06 µM; in assay [3], over 100 µM; in assay [4] it was over 100 µM; in [5] it was 5.66 µM; in assay [6], 6.34 µM; in assay [7], 4.63 µM. Further, the TGI in assay [8] was 5.89 µM; in assay [9], 7.96 µM; in [10], 5.26 µM.
For the compound `COc1ccc(Cc2nc3cc(OC)c(OC)cc3c(=O)[nH]2)cc1`, the GI50 was 6.64 µM in assay [1]; 4.78 µM in assay [2]; 4.73 µM in [3]; 10.9 µM in [4]; 9.53 µM in assay [5]; 9.2 µM in assay [6]. Besides, the figures for the GI50 in assay [8], in assay [9] and in assay [10] were 9.33 µM, 11.8 µM and 6.42 µM, respectively. Moreover, the TGI in [1] is over 93.4 µM; in assay [2], over 100 µM; in assay [3] it was over 100 µM; in assay [4], over 100 µM; in [5] it was 30.3 µM; in assay [6] it was over 100 µM. The TGI in assay [8] amounted to 28.8 µM; in assay [9], 54 µM; in assay [10] it was 32.1 µM.
With `COc1cc(N(CCC#N)CCC#N)ccc1/C(N=Nc1ccc(C(=O)O)cc1)=N/NC(=O)c1cc(Br)ccc1O`, the GI50 is 130 mg/L in assay [1]; 62.8 mg/L in assay [2]; 58.5 mg/L in assay [3]; 84.4 mg/L in assay [4]; over 150 mg/L in [5]; 53.2 mg/L in assay [6]. For the same compound, the GI50 in [7] was over 150 mg/L; in [8], 69.7 mg/L; in assay [10], over 150 mg/L. The TGI in [1], in assay [2], in [3], in assay [4], in assay [5] and in [6] was over 150 mg/L in each case. Moreover, the TGI in [7], in assay [8] and in [10] was over 150 mg/L each time.
In the case of `OCC(O)C(O)C(O)C(O)c1nn[nH]n1` (configuration not stated), the TGI in [1], in assay [2], in assay [3], in [4], in [5] and in [6] was over 100 µM each time. Besides, the TGI in assay [7] and in assay [8] was over 100 µM in each case.
Consider `O=C(Nc1ccc(C(F)(F)F)cc1[N+](=O)[O-])c1cccnc1`, for which the TGI in [1] was 8.11 µM; in assay [2], over 100 µM; in [4], over 100 µM; in [5] it was 8.32 µM; in [6], over 100 µM; in assay [7], over 100 µM. The TGI in [8], in assay [9] and in assay [10] was over 100 µM in each case.
As to `Cc1ccc(C2=C(Cl)C(=O)C(c3ccc(C)cc3)=C(Cl)C2=O)cc1`, the TGI in assay [1], in [2], in [3], in assay [4], in assay [5] and in assay [6] was over 100 µM in each case. Further, the TGI in [8], in assay [9] and in [10] was over 100 µM each time.
As for `CC(=O)[O-].[Mn+3].[O-]c1ccc(Cl)cc1C=NCCN=Cc1cc(Cl)ccc1[O-]`, the GI50 in assay [2] was over 100 µM; in assay [3], over 100 µM; in assay [4], 38.6 µM; in assay [5] it was 34.7 µM; in [6], over 100 µM; in assay [7], over 100 µM. The GI50 was 88.5 µM in assay [8], over 100 µM in assay [9] and over 100 µM in [10]. The TGI in [2], in [3], in assay [4], in assay [5], in assay [6] and in assay [7] was over 100 µM in each case. Also, the TGI in assay [8], in [9] and in assay [10] was over 100 µM each time.
